Test results as given in publication PMC3135787 (Antiviral research, 2011).

How the values were obtained:
[1] = test system: ET replicon with NS5B M414T; assay: microbe, parasite or virus in culture; type: cell-based, HCV
[2] = test system: ET replicon with NS5B C316Y; assay: microbe, parasite or virus in culture; type: cell-based, HCV
recombinant human ADAL1 = biological target: T1, recombinant human ADAL1 (Homo sapiens, UniProt Q6DHV7); assay: ADAL1-mediated demethylation assay; type: biochemical; conditions: ADAL1, pH 6.7, 37°C
T1 sequence (Q6DHV7 1-355): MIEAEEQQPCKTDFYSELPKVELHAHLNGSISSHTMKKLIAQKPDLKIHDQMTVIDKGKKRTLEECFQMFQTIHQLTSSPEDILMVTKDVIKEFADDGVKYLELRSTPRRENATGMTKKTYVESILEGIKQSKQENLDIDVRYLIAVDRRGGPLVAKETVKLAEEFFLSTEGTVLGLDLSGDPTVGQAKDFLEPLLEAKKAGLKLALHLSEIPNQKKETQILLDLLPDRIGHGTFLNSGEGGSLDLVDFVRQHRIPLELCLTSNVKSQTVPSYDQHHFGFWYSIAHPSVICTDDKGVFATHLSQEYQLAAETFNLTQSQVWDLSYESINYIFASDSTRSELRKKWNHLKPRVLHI

[3] = test system: genotype 1a H77 subgenomic replicon; assay: HCV replicon assay, genotype 1a H77; type: cell-based; conditions: GT1a_H77 replicon, four days
[4] = test system: primary human hepatocytes; assay: Metabolism of [3H]-PSI-353661 in primary human hepatocytes; type: in vitro ADME; conditions: continuous exposure to 5 μM [3H]-PSI-353661
[5] = test system: genotype 2a J6/JFH-1 subgenomic replicon; assay: HCV replicon assay, genotype 2a J6/JFH-1; type: cell-based; conditions: GT2a_JFH-1 replicon, four days
[6] = test system: genotype 1b replicon (Con1 strain); assay: HCV replicon assay, genotype 1b Con1; type: cell-based; conditions: GT1b_Con1 replicon, four days (96 h)
[7] = biological target: T2, Human guanylate kinase (hGUK1) (Homo sapiens, UniProt Q16774); assay: hGUK1-mediated phosphorylation, coupled spectrophotometric assay; type: biochemical
T2 sequence (Q16774 1-197): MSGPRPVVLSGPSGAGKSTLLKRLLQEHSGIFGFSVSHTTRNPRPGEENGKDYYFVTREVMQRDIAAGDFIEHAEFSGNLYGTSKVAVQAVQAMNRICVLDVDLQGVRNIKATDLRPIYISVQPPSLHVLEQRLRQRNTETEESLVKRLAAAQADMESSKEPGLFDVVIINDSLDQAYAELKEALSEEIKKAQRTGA

[8] = test system: ET replicon with NS5B S96T/N142T; assay: microbe, parasite or virus in culture; type: cell-based, HCV
[9] = test system: Clone A wild type replicon; assay: Cross resistance: Clone A wild type replicon, RT-PCR; type: cell-based, HCV; conditions: Hepatitis C virus, read-out: EC90 WT replicon
[10] = test system: Clone A replicon with NS5B S282T; assay: microbe, parasite or virus in culture; type: cell-based, HCV
[11] = Hepatitis C virus, read-out: EC90 Mutant replicon

CC(C)CCn1c(=O)c(C2=NS(=O)(=O)c3cc(N(C)S(C)(=O)=O)ccc3N2)c(O)c2cccn21 [Benzothiadiazine, N-{3-[4-Hydroxy-1-(3-methyl-butyl)-2-oxo-1,2-dihydro-pyrrolo[1,2-b]pyridazin-3-yl]-1,1-dioxo-1,4-dihydro-1λ^6-benzo[1,2,4]thiadiazin-7-yl}-N-methyl-methanesulfonamide, reference compound]
EC90 [1, 11]: 28.4 ± 13.7 µM
EC90 fold change ([1]; M414T mutant EC90 normalised to wild-type): 23.1

CNC(=O)c1c(-c2ccc(F)cc2)oc2cc(N(CCO)S(C)(=O)=O)c(C3CC3)cc12 [HCV-796, 5-cyclopropyl-2-(4-fluoro-phenyl)-6-[(2-hydroxy-ethyl)-methanesulfonyl-amino]-benzofuran-3-carboxylic acid methylamide, reference compound]
EC90 fold change ([2]; C316Y mutant EC90 normalised to wild-type): 73.9
EC90 [2, 11]: 1.92 ± 0.77 µM

CNc1ncnc2c1ncn2[C@@H]1O[C@H](COP(=O)(O)O)[C@@H](O)[C@H]1O [N^6-meAMP, N^6-methyl AMP, reference compound]
Km (recombinant human ADAL1): 12.5 ± 1.6 µM
kcat (recombinant human ADAL1): 1.58 ± 0.12 s⁻¹

COc1nc(N)nc2c1ncn2[C@@H]1O[C@H](COP(=O)(O)O)[C@@H](O)[C@H]1O [O^6-meGMP, O^6-methyl GMP, reference compound]
Km (recombinant human ADAL1): 5.2 ± 0.9 µM
kcat (recombinant human ADAL1): 2.33 ± 0.07 s⁻¹

C[C@@]1(F)[C@H](O)[C@@H](CO)O[C@H]1n1cnc2c(=O)[nH]c(N)nc21 [PSI-6567, 2′-F-2′-C-methylguanosine]
EC50 [3]: 19 ± 8.6 µM
EC90 [3]: 53.4 ± 12.8 µM
time to maximum intracellular concentration [4]: 0.5 to 1 h
EC50 [5]: 38.3 ± 18.6 µM
EC90 [5]: 60 ± 14.8 µM
EC50 [6]: 22 ± 7.7 µM
EC90 [6]: 69.2 ± 19.3 µM

COc1nc(N)nc2c1ncn2[C@@H]1O[C@H](CO)[C@@H](O)[C@@]1(C)F [PSI-352878, (2R,3R,4R,5R)-5-(2-amino-6-methoxy-purin-9-yl)-4-fluoro-2-hydroxymethyl-4-methyl-tetrahydro-furan-3-ol]
time to maximum intracellular concentration [4]: 0.5 to 1 h

COc1nc(N)nc2c1ncn2[C@@H]1O[C@H](COP(=O)(O)N[C@@H](C)C(=O)O)[C@@H](O)[C@@]1(C)F [PSI-353131, (S)-2-{[(2R,3R,4R,5R)-5-(2-amino-6-methoxy-purin-9-yl)-4-fluoro-3-hydroxy-4-methyl-tetrahydro-furan-2-ylmethoxy]-hydroxy-phosphorylamino}-propionic acid]
Km (recombinant human ADAL1): No activity
kcat (recombinant human ADAL1): No activity
kcat / Km (recombinant human ADAL1): No activity
time to maximum intracellular concentration [4]: 0.25 h

C[C@@]1(F)[C@H](O)[C@@H](COP(=O)(O)O)O[C@H]1n1cnc2c(=O)[nH]c(N)nc21 [PSI-353222, 2′-deoxy-2-α-fluoro-2-β-C-methylguanosine-5′-monophosphate]
time to maximum intracellular concentration [4]: 1 to 2 h
Km compared to GMP (fold weaker) ([7]; hGUK1): 3.4 fold
kcat compared to GMP (fold lower) ([7]; hGUK1): approximately 240 fold
Km ([7]; hGUK1, 37°C): 64.9 ± 1.6 µM
kcat ([7]; hGUK1, 37°C): 0.31 ± 0.03 s⁻¹

COc1nc(N)nc2c1ncn2[C@@H]1O[C@H](COP(=O)(O)O)[C@@H](O)[C@@]1(C)F [PSI-353224, 2-amino-6-methoxypurine 2′-deoxy-2′-α-fluoro-2-β-C-methylribose-5′-monophosphate]
Km (recombinant human ADAL1): 9 ± 2.1 µM
kcat (recombinant human ADAL1): 5.84 ± 0.40 s⁻¹
time to maximum intracellular concentration [4]: 0.5 to 1 h
activity as substrate ([7]; hGUK1, 500 μM, the highest concentration tested): No activity
Km ([7]; hGUK1, 37°C): No activity
kcat ([7]; hGUK1, 37°C): No activity
kcat / Km ([7]; hGUK1, 37°C): No activity

[N-]=[N+]=N[C@]1(CO)O[C@@H](n2ccc(N)nc2=O)[C@H](O)[C@@H]1O [R1479, 4′-azidocytidine]
EC90 [8, 11]: 74.1 ± 12.1 µM
EC90 fold change ([8]; S96T/N142T mutant EC90 normalised to wild-type): 4.7
EC90 [9]: 22.4 ± 4.58 µM
EC90 [10, 11]: 12.5 ± 3.78 µM
EC90 fold change ([10]; S282T mutant EC90 normalised to wild-type): 0.6
